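Five compound concentrations were applied to cells in 96-well plates for 48 hours; endpoints were derived by simple linear interpolation of the resulting dose-response curve. GI50: concentration for 50% inhibition of growth.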 Activity calls are given as the source filed them. Rule as the data show it: active = GI50 up to about 1.1 µM and inactive = higher.
Legend:
Experiment in all cases: growth of human tumour cells (NCI), 48 h
RPMI-8226 = tested on: RPMI-8226
RXF 393 = tested on: RXF 393
NCI-H226 = tested on: NCI-H226
SK-MEL-2 = tested on: SK-MEL-2
UO-31 = tested on: UO-31
SF-268 = tested on: SF-268
SR = tested on: SR
NCI-H23 = tested on: NCI-H23
U-251 = tested on: U-251
MDA-N = tested on: MDA-N
IGROV-1 = tested on: IGROV-1
SK-OV-3 = tested on: SK-OV-3
K562 = tested on: K562
ACHN = tested on: ACHN
HOP-62 = tested on: HOP-62
OVCAR-4 = tested on: OVCAR-4
UACC-257 = tested on: UACC-257
EKVX = tested on: EKVX
OVCAR-3 = tested on: OVCAR-3

Measured: GI50

CO/C(=N\N=C\c1cc(OC)ccc1OC)c1ccncc1
inactive: RPMI-8226 > 10 µM | RXF 393 > 10 µM | NCI-H226 > 10 µM | SK-MEL-2 > 10 µM | UO-31 > 10 µM | SF-268 > 10 µM | SR > 10 µM | NCI-H23 > 10 µM | U-251 > 10 µM | MDA-N > 10 µM | IGROV-1 > 10 µM | SK-OV-3 > 10 µM | K562 > 10 µM | ACHN > 10 µM | HOP-62 > 10 µM

COc1cc2c(cc1OCCCN1CCOCC1)N=C[C@@H]1CCCN1C2=O
inactive: RPMI-8226 2.21 µM | RXF 393 2.75 µM | NCI-H226 4.66 µM | SK-MEL-2 11.2 µM | OVCAR-4 13.3 µM | UACC-257 24.6 µM | UO-31 11.5 µM | SF-268 7.53 µM | SR 3.57 µM | U-251 4.41 µM | EKVX 19.4 µM | MDA-N 6.89 µM | OVCAR-3 2.83 µM | SK-OV-3 10.8 µM | K562 4.73 µM | ACHN 14 µM | HOP-62 12.5 µM

Cc1cc(-c2nc3c(O)cccc3s2)ccc1N
inactive: RPMI-8226 45 µM | RXF 393 67.9 µM | NCI-H226 31.6 µM | SK-MEL-2 22.7 µM | UACC-257 20.3 µM | UO-31 15.8 µM | SF-268 21 µM | SR 25.5 µM | NCI-H23 26.9 µM | U-251 29.6 µM | EKVX 20.2 µM | MDA-N 25.4 µM | IGROV-1 17 µM | OVCAR-3 26.5 µM | SK-OV-3 39.1 µM | K562 39.2 µM | ACHN 17.2 µM | HOP-62 25.6 µM

O=C1NCC2(CCN(CCCC3(c4ccc(F)cc4)OCCO3)CC2)N1c1ccccc1
inactive: RPMI-8226 > 100 µM | RXF 393 > 100 µM | NCI-H226 > 100 µM | SK-MEL-2 > 100 µM | OVCAR-4 > 100 µM | UACC-257 70.6 µM | SF-268 > 100 µM | SR > 100 µM | NCI-H23 > 100 µM | U-251 > 100 µM | EKVX > 100 µM | MDA-N > 100 µM | IGROV-1 > 100 µM | OVCAR-3 > 100 µM | K562 > 100 µM | ACHN > 100 µM | HOP-62 > 100 µM

O=C1c2ccccc2CN1c1ccc(O)cc1
inactive: RPMI-8226 > 100 µM | RXF 393 > 100 µM | NCI-H226 > 100 µM | SK-MEL-2 > 100 µM | OVCAR-4 > 100 µM | UACC-257 > 100 µM | SF-268 > 100 µM | SR > 100 µM | NCI-H23 > 100 µM | U-251 > 100 µM | EKVX > 100 µM | MDA-N > 100 µM | IGROV-1 > 100 µM | OVCAR-3 > 100 µM | SK-OV-3 > 100 µM | K562 > 100 µM | ACHN > 100 µM | HOP-62 > 100 µM

COC(=O)/C=C/c1ccc(OP(=O)(O)O)c(OC)c1
inactive: RPMI-8226 > 100 µM | RXF 393 > 100 µM | NCI-H226 > 100 µM | SK-MEL-2 > 100 µM | OVCAR-4 > 100 µM | UACC-257 > 100 µM | UO-31 > 100 µM | SF-268 > 100 µM | SR > 100 µM | NCI-H23 > 100 µM | U-251 > 100 µM | EKVX > 100 µM | MDA-N > 100 µM | IGROV-1 > 100 µM | OVCAR-3 > 100 µM | SK-OV-3 > 100 µM | ACHN > 100 µM | HOP-62 > 100 µM

O=C(CCCC(=O)N1CC(CCl)c2ccc([N+](=O)[O-])cc21)N1CC(CCl)c2ccc([N+](=O)[O-])cc21 (stereo unspecified)
inactive: RPMI-8226 43.7 µM | RXF 393 > 100 µM | NCI-H226 > 100 µM | SK-MEL-2 > 100 µM | OVCAR-4 > 100 µM | UACC-257 > 100 µM | UO-31 > 100 µM | SF-268 > 100 µM | SR 9.1 µM | NCI-H23 > 100 µM | U-251 > 100 µM | MDA-N > 100 µM | OVCAR-3 > 100 µM | SK-OV-3 > 100 µM | K562 > 100 µM | ACHN > 100 µM | HOP-62 > 100 µM

Cn1nc(S(N)(=O)=O)s/c1=N/C(N)=S
inactive: RPMI-8226 > 100 µM | RXF 393 > 100 µM | NCI-H226 > 100 µM | SK-MEL-2 > 100 µM | OVCAR-4 > 100 µM | UACC-257 > 100 µM | UO-31 > 100 µM | SF-268 > 100 µM | SR > 100 µM | NCI-H23 > 100 µM | U-251 > 100 µM | EKVX > 100 µM | MDA-N > 100 µM | OVCAR-3 > 100 µM | SK-OV-3 > 100 µM | K562 > 100 µM | ACHN > 100 µM | HOP-62 > 100 µM

C/C(CC(O)(C(F)(F)F)C(F)(F)F)=N\O
inactive: RPMI-8226 > 10 µM | RXF 393 > 10 µM | NCI-H226 > 10 µM | SK-MEL-2 > 10 µM | OVCAR-4 > 10 µM | UACC-257 > 10 µM | SF-268 > 10 µM | SR > 10 µM | NCI-H23 > 10 µM | U-251 > 10 µM | EKVX > 10 µM | MDA-N > 10 µM | IGROV-1 > 10 µM | OVCAR-3 > 10 µM | SK-OV-3 > 10 µM | K562 > 10 µM | ACHN > 10 µM | HOP-62 > 10 µM

O/N=C1/C2CC3CC1(c1ccccc1)CC(/C3=N/O)/C2=N\O (stereo unspecified)
inactive: RPMI-8226 > 100 µM | RXF 393 > 100 µM | NCI-H226 > 100 µM | SK-MEL-2 > 100 µM | OVCAR-4 > 100 µM | UACC-257 > 100 µM | UO-31 > 100 µM | SR > 100 µM | NCI-H23 > 100 µM | U-251 > 100 µM | EKVX > 100 µM | MDA-N > 100 µM | OVCAR-3 > 100 µM | SK-OV-3 > 100 µM | K562 > 100 µM | ACHN > 100 µM | HOP-62 > 100 µM

CC(C)(C)C(=O)CP(=O)(O)O
inactive: RPMI-8226 > 100 µM | RXF 393 > 100 µM | NCI-H226 > 100 µM | SK-MEL-2 > 100 µM | OVCAR-4 > 100 µM | UACC-257 > 100 µM | SF-268 > 100 µM | SR > 100 µM | NCI-H23 > 100 µM | U-251 > 100 µM | EKVX > 100 µM | MDA-N > 100 µM | IGROV-1 > 100 µM | OVCAR-3 > 100 µM | SK-OV-3 > 100 µM | K562 > 100 µM | ACHN > 100 µM | HOP-62 > 100 µM

— ChEMBL document CHEMBL1201862, “PubChem BioAssay data set” (2004)
